ChEMBL document CHEMBL1201862, “PubChem BioAssay data set” (2004)
Calls of active or inactive are those of the source.

Experiments:
SUMO-activating enzyme [1] = molecular target: T1, SUMO-activating enzyme (Homo sapiens, UniProt Q9UBT2); experiment: blockers of UBC9-mediated SUMO conjugation – biochemical, AlphaScreen, SUMOylation inhibitor project, confirmation (AID 2018); assay type: functional
[2] = fluconazole-exposed Candida albicans growth modulators – fluorescence, retest, confirmation (AID 2467); assay type: functional, cell-based
SUMO-activating enzyme [3] = molecular target: T1, SUMO-activating enzyme; experiment: blockers of SAE1/SAE2–UBC9 SUMO transfer – biochemical, HTRF, uHTS, primary screen (AID 2006); assay type: protein-complex assay
[4] = molecular target: ATP-dependent molecular chaperone HSP82 (Candida albicans (strain WO-1) (Yeast), UniProt C4YTQ8); experiment: steroid-induced GRE reporter decrease in yeast – S. cerevisiae, luminescence, Hsp90 inhibitor project, dose response (AID 2400); assay type: functional, cell-based;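 further: beta-galactosidase luminescence from glucocorticoid response element reporter as proxy for Hsp90 function; inhibitor potency where signal loss means Hsp90 inhibition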
[5] = NIH-3T3 fibroblast cytotoxicity, dose response, cytotoxicity control, cell-based, fluorescence, Alamar Blue, secondary assay (AID 2327); assay type: functional;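 further: NIH-3T3 mouse fibroblasts cultured with fluconazole at 8 µg/mL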
Vero = experiment: viability of Vero cells under compound – cytotoxicity control for flavivirus capping enzyme inhibitors (AID 588742); assay type: functional; conditions: Chlorocebus sabaeus
[6] = molecular target: Serine/threonine-protein phosphatase (Candida dubliniensis (strain CD36 / CBS 7987 / NCPF 3949 / NRRLY-17841) (Yeast), UniProt B9W6M3); experiment: blockers of CaCl2-induced CDRE-lacZ signaling – S. cerevisiae, luminescence, secondary, dose response (AID 2388); assay type: functional, cell-based;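 further: yeast reporter cells carrying a calcineurin-responsive lacZ construct stimulated with calcium chloride; luminescent beta-galactosidase reporter signal in whole cells rather than isolated phosphatase activity; potency for inhibition where a drop in reporter signal means calcineurin blockade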
[7] = molecular target: T2, Histone-lysine N-methyltransferase NSD2 (Homo sapiens, UniProt O96028); assay type: biochemical
T2 sequence (O96028 whole entry): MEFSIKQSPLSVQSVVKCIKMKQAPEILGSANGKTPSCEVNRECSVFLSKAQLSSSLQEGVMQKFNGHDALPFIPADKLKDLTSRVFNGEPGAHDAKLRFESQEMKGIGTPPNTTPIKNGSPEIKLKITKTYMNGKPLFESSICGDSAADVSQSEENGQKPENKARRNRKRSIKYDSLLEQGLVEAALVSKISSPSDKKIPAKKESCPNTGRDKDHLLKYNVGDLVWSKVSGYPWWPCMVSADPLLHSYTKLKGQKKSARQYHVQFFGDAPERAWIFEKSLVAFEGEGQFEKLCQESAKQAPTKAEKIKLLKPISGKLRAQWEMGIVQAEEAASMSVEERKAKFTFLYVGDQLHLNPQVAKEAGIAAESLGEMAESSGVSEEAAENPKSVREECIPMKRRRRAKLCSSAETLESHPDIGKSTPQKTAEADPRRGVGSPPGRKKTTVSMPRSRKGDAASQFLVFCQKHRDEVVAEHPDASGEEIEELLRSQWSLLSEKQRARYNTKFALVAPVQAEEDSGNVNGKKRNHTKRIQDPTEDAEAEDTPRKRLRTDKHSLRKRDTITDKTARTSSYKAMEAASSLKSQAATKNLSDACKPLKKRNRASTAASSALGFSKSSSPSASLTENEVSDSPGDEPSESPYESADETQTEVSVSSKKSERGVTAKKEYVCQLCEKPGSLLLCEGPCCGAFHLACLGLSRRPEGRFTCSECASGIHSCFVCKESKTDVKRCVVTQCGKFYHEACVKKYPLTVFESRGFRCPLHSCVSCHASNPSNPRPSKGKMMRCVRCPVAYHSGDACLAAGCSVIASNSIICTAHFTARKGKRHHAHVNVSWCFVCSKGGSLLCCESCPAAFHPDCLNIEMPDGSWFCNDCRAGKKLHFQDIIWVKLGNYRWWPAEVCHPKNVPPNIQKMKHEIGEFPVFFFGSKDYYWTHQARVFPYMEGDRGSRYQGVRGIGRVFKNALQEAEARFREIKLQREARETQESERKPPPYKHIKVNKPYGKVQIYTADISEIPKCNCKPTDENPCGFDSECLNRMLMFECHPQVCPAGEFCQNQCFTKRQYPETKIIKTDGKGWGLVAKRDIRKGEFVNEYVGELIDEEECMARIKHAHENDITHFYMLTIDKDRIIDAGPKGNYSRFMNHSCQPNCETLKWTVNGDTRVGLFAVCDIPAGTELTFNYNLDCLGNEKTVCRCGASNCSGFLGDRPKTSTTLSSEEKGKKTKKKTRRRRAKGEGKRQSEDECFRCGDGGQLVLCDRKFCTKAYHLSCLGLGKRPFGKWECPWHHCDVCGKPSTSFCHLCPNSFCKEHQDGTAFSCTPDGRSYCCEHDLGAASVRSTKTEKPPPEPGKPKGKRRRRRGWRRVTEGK

[8] = molecular target: T3, Mannose-6-phosphate isomerase (Homo sapiens, UniProt P34949); experiment: MPI inhibition at elevated mannose 6-phosphate – biochemical, fluorescence intensity, high mannose 6-phosphate, primary screen (AID 1220)
T3 sequence (P34949 whole entry): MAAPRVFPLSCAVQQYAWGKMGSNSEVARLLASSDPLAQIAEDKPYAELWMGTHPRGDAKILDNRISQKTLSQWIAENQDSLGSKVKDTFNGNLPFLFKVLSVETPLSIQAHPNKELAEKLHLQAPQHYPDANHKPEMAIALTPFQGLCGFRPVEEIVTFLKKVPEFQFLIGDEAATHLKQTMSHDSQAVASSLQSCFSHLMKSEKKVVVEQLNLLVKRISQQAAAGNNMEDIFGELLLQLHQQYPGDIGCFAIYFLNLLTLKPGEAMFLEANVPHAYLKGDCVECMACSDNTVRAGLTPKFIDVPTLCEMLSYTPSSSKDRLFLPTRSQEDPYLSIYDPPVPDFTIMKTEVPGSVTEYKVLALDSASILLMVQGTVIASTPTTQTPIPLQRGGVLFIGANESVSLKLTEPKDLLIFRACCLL

[9] = molecular target: Dual specificity protein kinase CLK1 (Homo sapiens, UniProt P49759); experiment: inhibition of human CLK1 activity – biochemical, cherry-picked samples, selectivity assay for Dyrk1A inhibitor project, dose response (AID 588811)
HEK293 [10] = experiment: SAR Analysis of small molecule inhibitors of B-cell specific antigen receptor-induced NF-kB activation in a HEK-293T cell line using a luminescence assay - Set 2. [Related pubchem assays (depositor defined):AID435022, AID435025, AID489021]; assay type: functional, cell-based; conditions: Homo sapiens
Jurkat = experiment: SAR Analysis of small molecule inhibitors of […] specific antigen receptor-induced NF-kB activation in a Jurkat cell line using a luminescence assay - Set 3. [Related pubchem assays (depositor defined):AID435022, AID435025, AID465]; assay type: functional, cell-based; conditions: Homo sapiens
HEK293 [11] = experiment: HEK293T cell viability loss, resazurin readout – resazurin fluorescence, cytotoxicity control for NF-kB activator project, SAR follow-up (AID 493251); assay type: functional, cell-based; conditions: Homo sapiens
Hexokinase HKDC1 = Hexokinase HKDC1 (Homo sapiens, UniProt Q2TB90); experiment: SAR analysis of small molecule inhibitors of hexokinase domain containing I (HKDC1). [Related pubchem assays (depositor defined):AID493160, AID493190]; assay type: functional
Hexokinase-1 = Hexokinase-1 (Homo sapiens, UniProt P19367); experiment: SAR analysis of small molecule inhibitors of hexokinase domain containing I (HKDC1) in the hexokinase 1 selectivity assay. [Related pubchem assays (depositor defined):AID493160, AID493190]; assay type: functional
A-375 [12] = experiment: proliferation inhibition in MITF-low A375 cells – cell-based, cherry-pick samples, set 2, counter-screen for MITF modulator project, dose response (AID 540335); assay type: functional; conditions: Homo sapiens
[13] = molecular target: T4, Microphthalmia-associated transcription factor (Homo sapiens, UniProt O75030); experiment: reducers of TRPM1 reporter luminescence, concentration series – cell-based, SK-MEL-5, cherry-picked, set 3, MITF inhibitor project, dose response (AID 493073); assay type: functional;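 further: SK-MEL-5 melanoma cells with luciferase driven by the MITF target TRPM1 promoter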
T4 sequence (O75030 whole entry): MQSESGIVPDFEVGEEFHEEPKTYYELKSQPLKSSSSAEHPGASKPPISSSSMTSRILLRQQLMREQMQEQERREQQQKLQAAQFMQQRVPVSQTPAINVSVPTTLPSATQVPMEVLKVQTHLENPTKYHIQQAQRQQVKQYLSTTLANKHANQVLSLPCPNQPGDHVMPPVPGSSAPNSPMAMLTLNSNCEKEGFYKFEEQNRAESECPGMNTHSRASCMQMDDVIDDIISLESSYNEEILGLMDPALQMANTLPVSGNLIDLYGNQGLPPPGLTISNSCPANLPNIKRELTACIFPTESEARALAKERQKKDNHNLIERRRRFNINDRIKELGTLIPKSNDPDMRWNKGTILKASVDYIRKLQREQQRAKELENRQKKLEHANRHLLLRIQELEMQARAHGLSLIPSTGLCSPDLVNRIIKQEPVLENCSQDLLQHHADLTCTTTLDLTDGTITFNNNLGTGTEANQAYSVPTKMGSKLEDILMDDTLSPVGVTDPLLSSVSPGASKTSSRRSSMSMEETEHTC

[14] = Luminescence Cell-Based Dose Response HTS to Identify Inhibitors of 5'UTR Stem-Loop Driven Prion Protein mRNA Translation in H4 Neuroglioblastoma Cells. [Related pubchem assays: 1827 (Project Summary), 1813 (Primary HTS)]; assay type: functional
[15] = alpha-synuclein stem-loop luciferase translation blockers – H4 neuroglioma cells, luminescence, confirmation (AID 1988); assay type: functional, cell-based
[16] = luciferase reporter signal suppression in cells – H4 neuroglioma cells, luminescence, dose response (AID 1990); assay type: functional, cell-based
A-375 [17] = experiment: MITF: Counter assay: A375 proliferation Measured in Cell-Based System Using Plate Reader - 2084-03_Inhibitor_Dose_DryPowder_Activity. [Related pubchem assays (depositor defined):AID488944]; assay type: functional; conditions: Homo sapiens
[18] = molecular target: T5, Acyl-homoserine lactone acylase PvdQ (Pseudomonas aeruginosa (strain LESB58), UniProt Q9I194); experiment: PvdQ acylase enzyme activity blockers – biochemical, fluorescence, plate reader and imaging, cherry-picks, dose response (AID 493231)
T5 sequence (Q9I194 whole entry): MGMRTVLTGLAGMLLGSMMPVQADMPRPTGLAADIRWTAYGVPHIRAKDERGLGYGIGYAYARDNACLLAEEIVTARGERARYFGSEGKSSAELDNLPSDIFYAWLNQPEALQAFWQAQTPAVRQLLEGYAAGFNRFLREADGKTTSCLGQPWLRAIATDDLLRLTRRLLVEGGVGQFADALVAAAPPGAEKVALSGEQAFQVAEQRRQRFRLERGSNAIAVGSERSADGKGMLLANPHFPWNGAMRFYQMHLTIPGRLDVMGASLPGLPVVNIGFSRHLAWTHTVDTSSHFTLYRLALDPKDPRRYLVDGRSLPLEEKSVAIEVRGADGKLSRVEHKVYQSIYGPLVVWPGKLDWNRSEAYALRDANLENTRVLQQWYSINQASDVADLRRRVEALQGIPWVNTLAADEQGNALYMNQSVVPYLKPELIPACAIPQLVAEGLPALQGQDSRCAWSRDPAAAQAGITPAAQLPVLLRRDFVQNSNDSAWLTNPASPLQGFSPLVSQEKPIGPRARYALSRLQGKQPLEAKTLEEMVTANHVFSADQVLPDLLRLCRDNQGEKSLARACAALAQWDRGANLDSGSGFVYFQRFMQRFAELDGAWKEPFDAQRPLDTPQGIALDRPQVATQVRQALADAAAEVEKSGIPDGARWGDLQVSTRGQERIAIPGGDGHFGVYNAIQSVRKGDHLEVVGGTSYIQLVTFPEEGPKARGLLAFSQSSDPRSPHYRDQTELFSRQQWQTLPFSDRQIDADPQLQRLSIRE

HeLa = experiment: toxicity to human HeLa cells – cell-based, 48 h, plate reader, cherry-picks, cytotoxicity control, dose response (AID 504942); assay type: functional
[19] = molecular target: Voltage-gated inwardly rectifying potassium channel KCNH2 (Homo sapiens, UniProt Q12809); conditions: Potency;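 further: confirmatory quantitative high-throughput screen measuring inhibition of hERG channel activity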
Voltage-gated inwardly rectifying potassium channel KCNH2, sequence (Q12809 whole entry): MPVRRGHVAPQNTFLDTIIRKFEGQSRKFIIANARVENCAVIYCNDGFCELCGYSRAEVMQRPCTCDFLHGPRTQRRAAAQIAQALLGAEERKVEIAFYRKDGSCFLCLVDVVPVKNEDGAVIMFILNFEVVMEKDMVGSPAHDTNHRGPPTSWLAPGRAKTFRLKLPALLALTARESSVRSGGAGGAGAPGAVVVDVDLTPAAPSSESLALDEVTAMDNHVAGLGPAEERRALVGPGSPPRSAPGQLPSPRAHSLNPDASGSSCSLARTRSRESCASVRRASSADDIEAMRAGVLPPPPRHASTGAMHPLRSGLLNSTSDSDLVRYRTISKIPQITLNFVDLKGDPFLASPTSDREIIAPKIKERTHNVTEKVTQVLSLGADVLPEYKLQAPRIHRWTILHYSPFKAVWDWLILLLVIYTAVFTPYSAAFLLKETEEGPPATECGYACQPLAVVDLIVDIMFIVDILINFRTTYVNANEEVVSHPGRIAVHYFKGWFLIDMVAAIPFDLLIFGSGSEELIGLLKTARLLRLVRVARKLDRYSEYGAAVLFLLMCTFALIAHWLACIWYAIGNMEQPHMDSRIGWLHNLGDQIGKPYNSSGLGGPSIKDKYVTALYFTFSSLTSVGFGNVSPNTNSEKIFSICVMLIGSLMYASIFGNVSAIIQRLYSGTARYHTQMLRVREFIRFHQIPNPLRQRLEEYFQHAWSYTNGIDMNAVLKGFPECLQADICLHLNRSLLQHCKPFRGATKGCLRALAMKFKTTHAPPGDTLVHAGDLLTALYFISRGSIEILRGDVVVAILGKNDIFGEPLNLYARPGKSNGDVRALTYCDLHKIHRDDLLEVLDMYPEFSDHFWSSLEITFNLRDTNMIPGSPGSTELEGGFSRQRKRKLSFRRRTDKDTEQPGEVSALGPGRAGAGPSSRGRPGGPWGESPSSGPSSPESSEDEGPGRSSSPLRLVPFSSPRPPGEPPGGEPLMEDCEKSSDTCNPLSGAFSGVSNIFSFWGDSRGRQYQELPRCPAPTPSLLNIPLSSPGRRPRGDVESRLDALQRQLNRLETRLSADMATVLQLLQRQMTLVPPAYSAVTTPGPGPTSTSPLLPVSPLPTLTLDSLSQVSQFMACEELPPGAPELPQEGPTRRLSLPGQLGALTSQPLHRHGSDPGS

T1 sequence (Q9UBE0 whole entry): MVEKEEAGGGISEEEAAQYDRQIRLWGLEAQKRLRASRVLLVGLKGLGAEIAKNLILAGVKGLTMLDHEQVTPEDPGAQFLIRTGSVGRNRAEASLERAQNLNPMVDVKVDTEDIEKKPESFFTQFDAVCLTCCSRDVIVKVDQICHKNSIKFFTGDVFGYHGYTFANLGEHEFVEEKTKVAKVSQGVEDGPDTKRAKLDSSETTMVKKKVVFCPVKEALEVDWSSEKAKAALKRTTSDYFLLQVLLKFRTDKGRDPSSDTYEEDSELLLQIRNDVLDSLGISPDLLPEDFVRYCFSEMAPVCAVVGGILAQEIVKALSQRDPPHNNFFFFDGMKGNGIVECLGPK
T1 sequence (Q9UBT2 whole entry): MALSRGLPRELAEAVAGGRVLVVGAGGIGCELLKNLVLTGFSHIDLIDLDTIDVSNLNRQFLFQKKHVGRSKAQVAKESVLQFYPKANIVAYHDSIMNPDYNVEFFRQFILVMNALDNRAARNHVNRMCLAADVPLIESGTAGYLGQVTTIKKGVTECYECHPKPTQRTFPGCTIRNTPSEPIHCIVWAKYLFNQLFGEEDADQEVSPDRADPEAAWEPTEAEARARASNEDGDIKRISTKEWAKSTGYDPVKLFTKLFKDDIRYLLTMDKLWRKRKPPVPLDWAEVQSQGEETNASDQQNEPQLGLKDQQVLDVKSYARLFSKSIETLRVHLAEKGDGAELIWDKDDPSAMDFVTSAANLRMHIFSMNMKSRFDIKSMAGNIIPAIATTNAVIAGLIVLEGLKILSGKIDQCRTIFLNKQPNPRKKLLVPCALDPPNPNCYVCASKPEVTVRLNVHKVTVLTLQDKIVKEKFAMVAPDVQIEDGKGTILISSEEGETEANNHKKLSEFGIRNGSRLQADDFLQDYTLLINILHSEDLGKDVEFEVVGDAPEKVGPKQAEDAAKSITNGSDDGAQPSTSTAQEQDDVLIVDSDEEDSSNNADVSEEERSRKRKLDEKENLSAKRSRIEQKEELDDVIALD
Serine/threonine-protein phosphatase, sequence (B9W6M3 whole entry): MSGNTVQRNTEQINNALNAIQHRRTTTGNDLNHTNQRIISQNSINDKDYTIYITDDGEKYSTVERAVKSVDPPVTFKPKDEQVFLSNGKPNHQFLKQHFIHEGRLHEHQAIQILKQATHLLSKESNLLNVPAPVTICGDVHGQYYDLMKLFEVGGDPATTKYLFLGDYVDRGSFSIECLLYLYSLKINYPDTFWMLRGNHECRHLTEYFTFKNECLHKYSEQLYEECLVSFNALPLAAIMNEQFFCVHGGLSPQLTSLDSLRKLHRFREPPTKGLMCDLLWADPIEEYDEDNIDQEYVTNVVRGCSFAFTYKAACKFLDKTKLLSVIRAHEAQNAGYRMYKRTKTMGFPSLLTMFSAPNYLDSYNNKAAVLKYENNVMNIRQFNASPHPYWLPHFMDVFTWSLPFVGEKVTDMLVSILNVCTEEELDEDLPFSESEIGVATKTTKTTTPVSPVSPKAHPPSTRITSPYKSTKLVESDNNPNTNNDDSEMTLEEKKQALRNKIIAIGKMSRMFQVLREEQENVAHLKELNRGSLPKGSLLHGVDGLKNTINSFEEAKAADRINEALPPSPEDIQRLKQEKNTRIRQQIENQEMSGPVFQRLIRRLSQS
ATP-dependent molecular chaperone HSP82, sequence (C4YTQ8 whole entry): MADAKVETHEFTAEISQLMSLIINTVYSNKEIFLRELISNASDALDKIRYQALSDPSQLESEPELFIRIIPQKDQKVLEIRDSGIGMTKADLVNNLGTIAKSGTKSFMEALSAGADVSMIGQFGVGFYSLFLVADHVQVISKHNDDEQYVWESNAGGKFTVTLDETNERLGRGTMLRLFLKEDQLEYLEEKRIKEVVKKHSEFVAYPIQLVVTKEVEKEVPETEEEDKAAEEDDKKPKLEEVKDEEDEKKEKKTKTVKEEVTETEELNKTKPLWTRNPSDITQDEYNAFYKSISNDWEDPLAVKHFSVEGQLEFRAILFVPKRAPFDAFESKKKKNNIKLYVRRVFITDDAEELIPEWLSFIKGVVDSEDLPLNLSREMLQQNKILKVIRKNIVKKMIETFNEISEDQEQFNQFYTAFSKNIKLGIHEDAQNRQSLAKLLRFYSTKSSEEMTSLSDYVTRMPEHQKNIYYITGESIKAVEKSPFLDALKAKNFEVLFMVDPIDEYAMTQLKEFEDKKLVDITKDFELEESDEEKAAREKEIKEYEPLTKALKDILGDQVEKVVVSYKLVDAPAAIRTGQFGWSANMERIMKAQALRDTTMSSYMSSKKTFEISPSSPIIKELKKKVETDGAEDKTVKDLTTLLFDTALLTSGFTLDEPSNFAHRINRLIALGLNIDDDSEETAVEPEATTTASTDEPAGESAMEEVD
Hexokinase-1, sequence (P19367 whole entry, the tested form may be a part): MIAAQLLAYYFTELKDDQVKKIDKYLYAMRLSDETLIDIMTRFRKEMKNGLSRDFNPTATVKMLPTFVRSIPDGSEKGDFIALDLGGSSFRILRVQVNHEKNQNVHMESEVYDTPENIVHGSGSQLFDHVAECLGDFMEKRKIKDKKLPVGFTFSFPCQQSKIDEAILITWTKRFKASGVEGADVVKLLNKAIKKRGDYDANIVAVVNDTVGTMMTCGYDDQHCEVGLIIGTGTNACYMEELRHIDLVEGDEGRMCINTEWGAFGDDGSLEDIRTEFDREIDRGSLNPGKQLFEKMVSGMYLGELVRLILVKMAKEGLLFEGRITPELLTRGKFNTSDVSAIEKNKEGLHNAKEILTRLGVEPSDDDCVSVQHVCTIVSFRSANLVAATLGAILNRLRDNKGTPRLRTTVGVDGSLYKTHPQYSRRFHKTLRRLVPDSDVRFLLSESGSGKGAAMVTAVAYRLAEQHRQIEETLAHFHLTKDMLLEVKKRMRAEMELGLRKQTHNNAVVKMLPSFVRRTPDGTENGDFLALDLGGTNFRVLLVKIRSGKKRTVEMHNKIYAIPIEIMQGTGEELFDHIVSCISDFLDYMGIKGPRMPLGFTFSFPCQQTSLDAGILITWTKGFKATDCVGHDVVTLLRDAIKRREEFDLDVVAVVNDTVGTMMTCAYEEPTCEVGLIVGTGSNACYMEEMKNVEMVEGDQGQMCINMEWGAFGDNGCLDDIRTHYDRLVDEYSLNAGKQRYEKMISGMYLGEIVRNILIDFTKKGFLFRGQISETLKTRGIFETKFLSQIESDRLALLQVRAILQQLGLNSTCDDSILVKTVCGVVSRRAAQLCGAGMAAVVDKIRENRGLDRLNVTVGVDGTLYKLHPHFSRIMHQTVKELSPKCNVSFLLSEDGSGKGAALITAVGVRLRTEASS
Dual specificity protein kinase CLK1, sequence (P49759 whole entry): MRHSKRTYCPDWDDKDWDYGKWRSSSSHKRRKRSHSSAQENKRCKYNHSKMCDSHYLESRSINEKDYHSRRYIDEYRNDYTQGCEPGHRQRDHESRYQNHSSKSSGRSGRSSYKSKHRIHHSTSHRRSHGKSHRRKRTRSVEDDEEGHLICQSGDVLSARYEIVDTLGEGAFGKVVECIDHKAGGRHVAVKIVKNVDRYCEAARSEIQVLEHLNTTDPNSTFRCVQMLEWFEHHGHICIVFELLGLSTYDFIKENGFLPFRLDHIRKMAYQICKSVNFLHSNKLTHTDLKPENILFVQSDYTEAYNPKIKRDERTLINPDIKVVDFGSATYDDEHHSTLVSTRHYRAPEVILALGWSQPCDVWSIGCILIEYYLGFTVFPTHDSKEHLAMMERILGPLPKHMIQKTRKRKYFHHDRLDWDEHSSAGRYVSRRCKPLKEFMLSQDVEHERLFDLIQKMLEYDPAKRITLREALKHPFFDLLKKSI

Structure (SMILES): CN(C)c1cc(N/N=C/c2ccc(Cl)cc2)nc(N(C)C)n1
- IC50 (SUMO-activating enzyme [1]): 1 µM (active)
- EC50 [2]: 0.401 µM (active)
- IC50 (SUMO-activating enzyme [3]): 14.2 µM (active)
- EC50 [4]: > 160 µM (inactive)
- EC50 [5]: > 160 µM (inactive)
- CC50 (Vero): > 40 µM (active)
- EC50 [6]: > 180 µM (inactive)
- AC50 [7]: 6.18 µM (active)
- IC50 [8]: > 50 µM (not active)

Structure (SMILES): Clc1ccc(CNc2nccc(-c3ccc4c(c3)OCCO4)n2)cc1Cl
- AC50 [9]: 0.0206 µM (active)

Structure (SMILES): CCOc1ccc(-c2nc(CSCC(=O)NCC3CCCO3)c(C)o2)cc1 (centres undefined)
- IC50 (HEK293 [10]): 67.7 µM (inactive)
- IC50 (Jurkat): > 80 µM (inactive)
- IC50 (HEK293 [11]): > 80 µM (inactive)

Structure (SMILES): Cc1ccc(S(=O)(=O)Nc2cc(SCCC(=O)O)c(O)c3ccccc23)cc1
- IC50 (Hexokinase HKDC1): 10 µM (active)
- IC50 (Hexokinase-1): > 80 µM (inactive)

Structure (SMILES): CC(=O)c1ccc(S(=O)(=O)N2CCN(C(=O)/C=C/c3ccc4ccccc4n3)CC2)cc1
- AC50 (A-375 [12]): > 35 µM (active)
- AC50 [13]: 12 µM (active)
- EC50 [14]: 11.8 µM (active)
- EC50 [15]: 10.3 µM (active)
- EC50 [16]: 13.4 µM (active)
- AC50 (A-375 [17]): > 35 µM (active)

Structure (SMILES): COc1ccc(-c2cc3ncccc3cn2)cc1
- AC50 [18]: 7.13 µM (active)
- AC50 (HeLa): 72.9 µM (active)

Structure (SMILES): COC(=O)c1c(-c2cc(OC)c(OC)c(OC)c2)c2ccc(OCc3ccccn3)cc2c(=O)n1-c1ccc(N)cc1
- AC50 [19]: 5.62 µM (inconclusive)
